Laboratory results taken from patent US8835397B2, “Macrocyclic lactone tablet formulation” (Bayer New Zealand Ltd., priority 2006, dated 2014).

Assay: Abamectin blood plasma levels after raw active (no excipients) in gelatine capsule, sheep (Example 2)
Format: in vivo
Details: oral gelatine capsule, raw active without excipients, 0.2 mg/kg
Description: Given the results in Example 1, a further trial was completed to determine the influence of the formulation on the degree of absorption of abamectin. This was completed by ascertaining baseline levels of abamectin drug bioavailability when animals are dosed with raw active (no excipients).
Five sheep weighing 59.0 kg to 63.5 kg (mean=61.2 kg) were all dosed with one abamectin treatment, which contained a dose sufficient for a 60 kg animal at the standard dose rate of 0.2 mg/kg for abamectin. The abamectin dose was contained within a gelatine capsule.
Prior to administration of the invention or Reference formulation, all animals were dosed to their individual liveweight with SCANDA™ (Batch 52888, expiry April 2006) at least 14 days prior to each treatment session, and tested free of strongylid nematodes (via faecal egg count) prior to the commencement of each treatment session.
Gelatine capsules containing an abamectin drug (one capsule per sheep) were used. All animals were dosed orally with the assistance of a “pill popper”, which was followed immediately by approx 60 ml of tap water. The capsules were dark green in colour, to prevent the light sensitive abamectin from being prematurely exposed to light.
All animals were blood sampled seven times. […]

abamectin
Abamectin blood plasma peak level: just above the detection threshold
